Data published in ChEMBL document CHEMBL2034842, “Synthesis, anti-Candida activity, and cytotoxicity of new (4-(4-iodophenyl)thiazol-2-yl)hydrazine derivatives” (Eur J Med Chem, 2012).
In brackets after ≈: the same amount, converted by molar mass.

Tests used:
Assay type in all cases: functional
Candida albicans = assay: Antifungal activity against 10 strains of Candida albicans after 24 hrs by […]
Staphylococcus aureus = assay: Antibacterial activity against Staphylococcus aureus after 18 to 22 hrs by […]
Staphylococcus warneri = assay: Antibacterial activity against Staphylococcus warneri after 18 to 22 hrs by […]
Klebsiella aerogenes = assay: Antibacterial activity against Enterobacter aerogenes after 18 to 22 hrs by […]
Klebsiella pneumoniae = assay: Antibacterial activity against Klebsiella pneumoniae after 18 to 22 hrs by […]
Streptococcus pyogenes = assay: Antibacterial activity against Streptococcus pyogenes after 18 to 22 hrs by […]
[Candida] sake = Antifungal activity against 2 strains of Candida sake after 24 hrs by […]; conditions: Fermentozyma sake
Candida parapsilosis = assay: Antifungal activity against 4 strains of Candida parapsilosis after 24 hrs by […]; conditions: Lodderomyces parapsilosis
Escherichia coli = assay: Antibacterial activity against Escherichia coli after 18 to 22 hrs by […]
Nakaseomyces glabratus = assay: Antifungal activity against 4 strains of Candida glabrata after 24 hrs by […]
Proteus vulgaris = assay: Antibacterial activity against Proteus vulgaris after 18 to 22 hrs by […]
Pichia kudriavzevii = assay: Antifungal activity against 3 strains of Candida krusei after 24 hrs by […]
Candida tropicalis = assay: Antifungal activity against 4 strains of Candida tropicalis after 24 hrs by […]
Enterococcus faecalis = assay: Antibacterial activity against Enterococcus faecalis after 18 to 22 hrs by […]

MIC (Candida albicans) [µg/mL]	MIC (Staphylococcus aureus) [µg/mL]	MIC (Staphylococcus warneri) [µg/mL]	MIC (Klebsiella aerogenes) [µg/mL]	MIC (Klebsiella pneumoniae) [µg/mL]	MIC (Streptococcus pyogenes) [µg/mL]	MIC ([Candida] sake) [µg/mL]	MIC (Candida parapsilosis) [µg/mL]	MIC (Escherichia coli) [µg/mL]	MIC (Nakaseomyces glabratus) [µg/mL]	MIC (Proteus vulgaris) [µg/mL]	MIC (Pichia kudriavzevii) [µg/mL]	MIC (Candida tropicalis) [µg/mL]	MIC (Enterococcus faecalis) [µg/mL]	SMILES
2 (≈ 4.7 µM)	32 (≈ 75.2 µM)	32 (≈ 75.2 µM)	> 128	> 128	> 128	4 (≈ 9.4 µM)	0.5 (≈ 1.18 µM)	> 128	4 (≈ 9.4 µM)	> 128	2 (≈ 4.7 µM)	2 (≈ 4.7 µM)	> 128	C/C(=N\Nc1nc(-c2ccc(I)cc2)cs1)c1cccs1
0.5 (≈ 1.27 µM)	> 128	> 128	32 (≈ 81 µM)	32 (≈ 81 µM)	32 (≈ 81 µM)	64 (≈ 162 µM)	2 (≈ 5.06 µM)	32 (≈ 81 µM)	4 (≈ 10.1 µM)	16 (≈ 40.5 µM)	64 (≈ 162 µM)	2 (≈ 5.06 µM)	32 (≈ 81 µM)	Ic1ccc(-c2csc(N/N=C/c3ccco3)n2)cc1
0.25 (≈ 0.615 µM)	32 (≈ 78.8 µM)	32 (≈ 78.8 µM)	> 128	> 128	2 (≈ 4.92 µM)	128 (≈ 315 µM)	2 (≈ 4.92 µM)	> 128	2 (≈ 4.92 µM)	> 128	128 (≈ 315 µM)	0.5 (≈ 1.23 µM)	2 (≈ 4.92 µM)	Ic1ccc(-c2csc(N/N=C/c3ccncc3)n2)cc1
0.25 (≈ 0.595 µM)	> 128	> 128	> 128	32 (≈ 76.1 µM)	32 (≈ 76.1 µM)	64 (≈ 152 µM)	2 (≈ 4.76 µM)	32 (≈ 76.1 µM)	2 (≈ 4.76 µM)	16 (≈ 38.1 µM)	64 (≈ 152 µM)	0.5 (≈ 1.19 µM)	32 (≈ 76.1 µM)	C/C(=N\Nc1nc(-c2ccc(I)cc2)cs1)c1cccnc1
2 (≈ 4.26 µM)	8 (≈ 17 µM)	4 (≈ 8.52 µM)	16 (≈ 34.1 µM)	16 (≈ 34.1 µM)	8 (≈ 17 µM)	64 (≈ 136 µM)	2 (≈ 4.26 µM)	16 (≈ 34.1 µM)	4 (≈ 8.52 µM)	16 (≈ 34.1 µM)	64 (≈ 136 µM)	2 (≈ 4.26 µM)	4 (≈ 8.52 µM)	C/C(=N\Nc1nc(-c2ccc(I)cc2)cs1)c1ccc2ccccc2c1

More lines, now with the values behind:

SMILES	MIC (Candida albicans) [µg/mL]	MIC (Staphylococcus aureus) [µg/mL]	MIC (Staphylococcus warneri) [µg/mL]	MIC (Klebsiella aerogenes) [µg/mL]	MIC (Klebsiella pneumoniae) [µg/mL]	MIC (Streptococcus pyogenes) [µg/mL]	MIC ([Candida] sake) [µg/mL]	MIC (Candida parapsilosis) [µg/mL]	MIC (Escherichia coli) [µg/mL]	MIC (Nakaseomyces glabratus) [µg/mL]	MIC (Proteus vulgaris) [µg/mL]	MIC (Pichia kudriavzevii) [µg/mL]	MIC (Candida tropicalis) [µg/mL]	MIC (Enterococcus faecalis) [µg/mL]
Ic1ccc(-c2csc(NN=C3CCCC3)n2)cc1	2 (≈ 5.22 µM)	32 (≈ 83.5 µM)	8 (≈ 20.9 µM)	> 128	> 128	8 (≈ 20.9 µM)	32 (≈ 83.5 µM)	2 (≈ 5.22 µM)	> 128	2 (≈ 5.22 µM)	32 (≈ 83.5 µM)	2 (≈ 5.22 µM)	0.5 (≈ 1.3 µM)	8 (≈ 20.9 µM)
Ic1ccc(-c2csc(N/N=C/c3ccc4c(c3)OCO4)n2)cc1	2 (≈ 4.45 µM)	32 (≈ 71.2 µM)	32 (≈ 71.2 µM)	> 128	> 128	> 128	4 (≈ 8.9 µM)	2 (≈ 4.45 µM)	> 128	4 (≈ 8.9 µM)	> 128	2 (≈ 4.45 µM)	2 (≈ 4.45 µM)	32 (≈ 71.2 µM)
COC1=CC(=O)C[C@@H](C)[C@]12Oc1c(Cl)c(OC)cc(OC)c1C2=O [GRISEOFULVIN]	8 (≈ 22.7 µM)						8 (≈ 22.7 µM)	8 (≈ 22.7 µM)		8 (≈ 22.7 µM)		8 (≈ 22.7 µM)	8 (≈ 22.7 µM)	
CC(C)(O/N=C(\C(=O)N[C@@H]1C(=O)N2C(C(=O)[O-])=C(C[n+]3ccccc3)CS[C@H]12)c1csc(N)n1)C(=O)O [CEFTAZIDIME]		0.5 (≈ 0.915 µM)	0.5 (≈ 0.915 µM)	2 (≈ 3.66 µM)	2 (≈ 3.66 µM)	0.5 (≈ 0.915 µM)			4 (≈ 7.32 µM)		2 (≈ 3.66 µM)			0.5 (≈ 0.915 µM)
Ic1ccc(-c2csc(N/N=C/c3c[nH]c4ccccc34)n2)cc1	0.5 (≈ 1.13 µM)	32 (≈ 72 µM)	32 (≈ 72 µM)	> 128	> 128	4 (≈ 9 µM)	4 (≈ 9 µM)	0.5 (≈ 1.13 µM)	> 128	4 (≈ 9 µM)	> 128	4 (≈ 9 µM)	2 (≈ 4.5 µM)	4 (≈ 9 µM)
